Experimental data from paper PMC10518255, “A first-in-class pan-lysyl oxidase inhibitor impairs stromal remodeling and enhances gemcitabine response and survival in pancreatic cancer” (Nature Cancer, 2023).
“And” between values parts separate entries of the source, which are not always exact repeats. Equal entries are not always repeated.

System: TKCC10 human PDX tumors
Experiment: TKCC10 human model, FITC-dextran perfusion (Extended Data Fig. 5f)
Format: in vivo, mouse
Details: for FITC-dextran (10 kDa) signal quantification: Extended Data 5F, human PDXs, individual FOV
Description: Subcutaneous PDX studies were performed by implanting early passage PDX pieces (~4 mm^3) or TKCC10 CCs (1.5 × 10^6 cells per mouse in 100 μl PBS/Matrigel 1:1) into female (PDX) or male (TKCC10) 8-week-old immunocompromised nude Balb/c-Fox1nuAusb mice subcutaneously on the left flank. For the duration of the study, mice were kept in conventional caging with environmental enrichment, access to standard chow, water ad libitum and 12-h light–dark cycle at ambient temperature and humidity. Treatment began when tumors reached 150 mm^3, where each mouse was randomized into a treatment group and administered gemcitabine HCl (100 mg kg^−1 in saline) (Jomar Life Research) or vehicle control (0.9% saline) by i.p. injection twice weekly on day 2 and 4 of the treatment cycle until an ethical end point was reached. These included maximal tumor mass ≥10% of body weight, weight loss ≥20% from maximum body weight or tumor interfering with mobility and affecting access to food and water. […] Tumor size was monitored every second day by calipers. Tumor volume was calculated using the formula (length × width^2)/2. […]
FITC-dextran (10 kDa) was administered at 40 mg ml^−1 in saline via tail vain 2 h before culling. […] Images were quantified using Fiji Software for Integrated Density Signal.
Extended Data Fig. 5 PXS-5505 in combination with gemcitabine in vivo. a. […] Signal is defined as the enzyme activity in the aorta, while noise is measured in the presence of a high concentration (300 µM) BAPN to abolish any lysyl oxidase family activity. […] FITC-dextran (molecular weight: 10 kDa) signal quantification from KPC tumor end point from each treatment group (vehicle n = 3 biologically independent animals, PXS-5505 n = 5 biologically independent animals, Gem n = 5 biologically independent animals, PXS-5505 + Gem n = 5 biologically independent animals). […] P-values determined by Welchs t-test. […] Quantification of red birefringent (mature) collagen fibers from human PDXs at end point after 3 cycles of treatment, treated as indicated. […] P values determined by Welchs t-test. g. […]

Structure (SMILES)	FITC-dextran (10 kDa) signal quantification	FITC-dextran signal (tumor perfusion) (TKCC10 model)
Nc1ccn([C@@H]2O[C@H](CO)[C@@H](O)C2(F)F)c(=O)n1 [Gem, gemcitabine]	94281 and 105741 and 104921 and 268246 and 141904 and 94336 and 85811 and 123546 and 103971 and 163288 and 111668 and 293663 and 289768 and 460793 and 155579 and 95059 and 92172 and 111389 and 85819 and 99312	significantly reduced FITC signal
Cl.Cl.NC/C=C(\F)CS(=O)(=O)c1cccc2cccnc12.O [PXS-5505, (Z)-3-fluoro-4-(quinolin-8-ylsulfonyl)but-2-en-1-amine dihydrochloride monohydrate]	217149 and 705678 and 861620 and 155219 and 311738 and 1148786 and 651132 and 524503 and 645010 and 362873 and 336536 and 501004 and 447832 and 108773 and 210759 and 520769 and 406359 and 125675 and 423935 and 547504	
